# From patent publication US4877803A, “Bis-dioxopiperazine derivatives and pharmaceutical compositions containing the same” (Zenyaku Kogyo Kabushiki Kaisha, priority 1985, dated 1989)
# Experiments:
# [1] = system: P388 lymphocytic leukemia cells; assay: Growth inhibition of tumor cells in vitro; assay type: cell-based; conditions: Mus musculus, 48 hours at 37° C., read-out: IC50 (50% inhibitory concentration of cell growth)
# Experimental: (I) Growth Inhibition of Tumor Cells in Vitro:
# Tumor cells were collected aseptically with capillary tube from ascites in CDF1 male mice transplanted intraperitoneally with 1×10^6 cells of P388 lymphocytic leukemia 5 days Before. Cell suspension was prepared at 5×10^4 cells/0.5 ml in a RPMI1640 medium supplemented with 10% fetal calf serum, Kanamycin (0.1 mg/ml) and 2-hydroxyethyldisulfide (0.01 mm). Each sample was dissolved or suspended in the medium at a concentration of 1×10^-1 -1×10^-5 mM/ml.
# A test tube with Molton stopper loosely involving 0.5 ml each of the cell suspension and the sample suspension was kept for 48 hours at 37° C. in an incubator supplied with air containing 5% carbon dioxide. Then, after addition of 4 ml of 0.25% trypsin solution, the tube was shaken for 5 minutes at 37° C. The cells harvested therefrom was counted by using of a Coulter Counter and the inhibition of cell growth was calculated by the following formula: [formula] T: number of cells in the culture containing test compound. C: number of cells in the culture of control
# 50% Inhibitory concentration of cell growth (IC50) was calculated based on the inhibition in various concentrations of test compound and is shown in Table I.
# [2] = system: P388 lymphocytic leukemia; assay: Increase in life span on tumor-transplanted mouse (P388); assay type: in vivo, mouse (CDF1); conditions: intraperitoneal, 1 day after transplantation and on 5th day
# Experimental: (II) Increase in Life Span on Tumor-transplanted Mouse: The treated group to which the compound of the present invention was administered consisted of seven mice, while the control group consisted of ten mice. Six weeks old male mice (CDF1, 25±2 g of body weight) were employed as host animals.
# Tumor cells (1.0×10^6) of P388 lymphocytic leukemia were transplanted intraperitoneally into each mouse. The treatment was effected one day after the transplantation and on 5th day by administering prescribed dose of each test compound intraperitoneally to the mice.
# Antitumor activity of the test compound was evaluated by the rate of increase in life span (ILS) which was calculated with the following formula. [formula] T': median survival time of treated mice C': median survival time of control mice
# [3] = Acute toxicity test in mice; conditions: mouse, in vivo, ip; male ICR mice, intraperitoneal, observed for 14 days, Litchfield-Wilcoxon method
# Experimental: The acute toxicity of the compounds of the present invention was examined by the following test.
# The test group to which the compound of the present invention was administered consisted of ten mice. Five weeks old male mice (ICR, 25±2 g of body weight) were employed as test animals.
IC50 [1] [nM],Structure (SMILES),ILS (rate of increase in life span) ([2]; daily dose 3.0 mg/kg) [%],also measured
1600,"CC(CN1CC(=O)N(CN2CCOCC2)C(=O)C1)N1CC(=O)N(CN2CCOCC2)C(=O)C1 (racemic) [(B), dl-1,2-bis(4-morpholinomethyl-3,5-dioxopiperazin-1-yl)propane]",1,ILS (rate of increase in life span) ([2]; daily dose 200 mg/kg (adequate dose)): 47%
2400,"O=C1CN(CCN2CC(=O)N(CN3CCOCC3)C(=O)C2)CC(=O)N1CN1CCOCC1 [(A), 1,2-bis(4-morpholinomethyl-3,5-dioxopiperazin-1-yl)ethane]",2,ILS (rate of increase in life span) ([2]; daily dose 100 mg/kg (adequate dose)): 60%
47,"C[C@H]([C@H](C)N1CC(=O)N(CN2CCCCC2)C(=O)C1)N1CC(=O)N(CN2CCCCC2)C(=O)C1 [(4), meso-2,3-bis(4-piperoidinomethyl-3,5-dioxopiperazin-1-yl)butane]",–,–

# More lines, now with the values behind:
Structure (SMILES),IC50 [1] [nM],ILS (rate of increase in life span) ([2]; daily dose 3.0 mg/kg) [%],also measured
"CC1CC(C)CN(CN2C(=O)CN([C@H](C)[C@H](C)N3CC(=O)N(CN4CC(C)CC(C)C4)C(=O)C3)CC2=O)C1 (stereo partly drawn) [(5), meso-2,3-bis[4-(3,5-dimethylpiperidinomethyl)-3,5-dioxopiperazin-1-yl]butane]",12,–,–
"C[C@H]([C@H](C)N1CC(=O)N(CN2CCN(c3ccccc3)CC2)C(=O)C1)N1CC(=O)N(CN2CCN(c3ccccc3)CC2)C(=O)C1 [(3), meso-2,3-bis[4-(N-phenylpiperazinomethyl)-3,5-dioxopiperazin-1-yl]butane]",22,–,ILS (rate of increase in life span) ([2]; daily dose 3.4 mg/kg): 78%
"C[C@H]([C@H](C)N1CC(=O)N(CN2CCSCC2)C(=O)C1)N1CC(=O)N(CN2CCSCC2)C(=O)C1 [(2), meso-2,3-bis(4-thiomorpholinomethyl-3,5-dioxopiperazin-1-yl)butane]",230,–,ILS (rate of increase in life span) ([2]; daily dose 1.8 mg/kg): > 194%
"C[C@H]([C@H](C)N1CC(=O)N(CN2CCOCC2)C(=O)C1)N1CC(=O)N(CN2CCOCC2)C(=O)C1 [(1), meso-2,3-bis(4-morpholinomethyl-3,5-dioxopiperazin-1-yl)butane]",61,165,LD50 at 336 h [3]: 10.7 mg/kg
